What all share (assay type): cell-based, human
One experiment has as its system MCF-7 cells. Kind of experiment: Cell proliferation assay (MTT/MTS), MCF-7. The settings on record: 72-120 h, MTT or MTS, mean±SEM. An excerpt: (§1) Hodgkin's lymphoma cell line (L-540) and human androgen-resistant prostate cancer cell line (PC3) were obtained from the German Collection of Microorganisms and Cell Cultures (Braunschweig, Germany). Human breast adenocarcinoma cell line MCF-7 cell line (HTB-22™) was obtained from the American Type Culture Collection (ATCC, Rockville, Md., USA). Human ovarian epithelial carcinoma-derived cancer cells A2780 and its cisplatin-resistant clone A2780cis were from Sigma Inc (St. Louis, Mo., USA), and the isogenic cisplatin-resistant 2780CP-16 cells were cultured as previously described (Siddik, Z. H.; Mims, B.; Lozano, G.; Thai, G. Independent pathways of p53 induction by cisplatin and X-rays in a cisplatin-resistant ovarian tumor cell line. Cancer Res. 1998, 58, 698-703, incorporated herein by reference in its entirety). A panel of non-small cell lung cancer (NSCLC) cell lines (H460, A549, H226, H838, H157, H1975, H2122, SKLU1 and H1299) was obtained from Dr. Garth Powis at MD Anderson Cancer Center. […]
(§2) PC3 and MCF-7 cells (2.5×10^3), A2780, A2780cis (4.0×10^3), A2780CP-16 and lung cancer cells (H460, A549, H226, H838, H157, H1975, H2122, SKLU1 and H1299) were seeded in 96-well flat-bottomed microplates (100 μL) and incubated for 24 h (to allow cell adhesion) before drug testing. […] After treatment, cell proliferation was evaluated by the MTS assay (Promega). […]

In experiment [1] the test system is WT-p53 A2780 ovarian cancer cells (CRISPR Control). Kind of experiment: MTT assay, A2780 transfected with CRISPR control plasmid. The settings on record: A2780 clone with control plasmid. How it is done:
(§3) PC3 and MCF-7 cells (2.5×10^3), A2780, A2780cis (4.0×10^3), A2780CP-16 and lung cancer cells (H460, A549, H226, H838, H157, H1975, H2122, SKLU1 and H1299) were seeded in 96-well flat-bottomed microplates (100 μL) and incubated for 24 h (to allow cell adhesion) before drug testing. The medium was then removed and replaced with fresh medium which separately contained cisplatin and the gold(III) compounds 1 to 9 at increasing concentrations (from 0.01 to 100 μM) at 37° C. for 72-120 h. Each treatment was performed in triplicate. Cell proliferation was assayed using the MTT assay or the MTS assay. […] After treatment, cell proliferation was evaluated by the MTS assay (Promega). […] The dependency of the anticancer activity of the gold(III) compounds on the type of p53 or the absence of p53 was assessed in A2780 cells following p53 knockdown by CRISPR (Cong, L.; Ran, F. A.; Cox, D.; Lin, S.; Barretto, R.; Habib, N.; Hsu, P. D.; Wu, X.; Jiang, W.; Marraffini, L. A.; Zhang, F. Multiplex genome engineering using CRISPR/Cas systems Science. 2013, 15; 339 (6121), 819-23, incorporate herein by reference in its entirety). […]
For orientation: Tetrazolium assays rely on reduction of a dye to a coloured formazan, in cell work by metabolically active cells.

Experiment [2] relates to NSCLC cell lines (H460, A549, H226, H838, H157, H1975, H2122, SKLU1 and H1299). Kind of experiment: Cell proliferation assay, NSCLC panel grouped by p53 status. The settings on record: range over the NSCLC panel (WT-, Mut- and Null-p53).
Description: as §1, §2

Experiment [3] deals with A2780 ovarian cancer cells (CRISPR p53 KO). Kind of experiment: MTT assay, A2780 with p53 knocked out by CRISPR/Cas9. The settings on record: A2780 clone with p53 knocked out. How it is done: as §3
For another experiment, the system named is A549 cells. Kind of experiment: Dose-response curves in A549 cells. Particulars: 5 days after contacting. How it is done:
(§4) Gold(III) compounds were dissolved in DMSO (final concentration of the gold(III) complexes was 10 mM) and stored at −80° C. in volumes of 500 μL or aliquoted into volumes of 10 μL and stored at −20° C. (used once without refreezing). They were then diluted in RPMI medium immediately before use. The culture medium with the same amount of drug-free DMSO was used as negative control.
as §3, with “h.” for “h. Each treatment was performed in triplicate. Cell proliferation was assayed using the MTT assay or the MTS assay.”

The subject of experiment [4] is cisplatin-resistant A2780cis cells. Kind of experiment: Cell proliferation assay (MTT/MTS), A2780cis. Particulars: for IC50: cisplatin-resistant A2780cis cells, 72-120 h, MTT or MTS, mean±SEM.
Description: Hodgkin's lymphoma cell line (L-540) and human androgen-resistant prostate cancer cell line (PC3) were obtained from the German Collection of Microorganisms and Cell Cultures (Braunschweig, Germany). Human breast adenocarcinoma cell line MCF-7 cell line (HTB-22™) was obtained from the American Type Culture Collection (ATCC, Rockville, Md., USA). Human ovarian epithelial carcinoma-derived cancer cells A2780 and its cisplatin-resistant clone A2780cis were from Sigma Inc (St. Louis, Mo., USA), and the isogenic cisplatin-resistant 2780CP-16 cells were cultured as previously described (Siddik, Z. H.; Mims, B.; Lozano, G.; Thai, G. Independent pathways of p53 induction by cisplatin and X-rays in a cisplatin-resistant ovarian tumor cell line. Cancer Res. 1998, 58, 698-703, incorporated herein by reference in its entirety). A panel of non-small cell lung cancer (NSCLC) cell lines (H460, A549, H226, H838, H157, H1975, H2122, SKLU1 and H1299) was obtained from Dr. Garth Powis at MD Anderson Cancer Center. Cell lines were further authenticated for their origin by BMR Genomics according to Cell ID System (Promega) protocol and using Genemapper ID Ver 3.2.1 to identify DNA short tandem repeat profiles. The […] cisplatin-resistant subclone (A2780cis) was maintained by weekly treatment with 1 μM cisplatin (Casagrande, N.; Celegato, M.; Borghese, C.; Mongiat, M.; Colombatti, A.; Aldinucci, D. Preclinical activity of the liposomal cisplatin Lipoplatin in ovarian cancer. Clin. Cancer Res. 2014, 20(21), 5496-5506, incorporated herein by reference in its entirety).
Cells were cultured in 5% CO2 in RPMI (for L-540, A2780, A2780cis, 2780CP-16, PC3 and the panel of lung cancer cells) or DMEM (for MCF-7 cells) media supplemented with 10% heat-inactivated fetal calf serum (FCS; Sigma-Aldrich-Italy), 0.2 mg/ml penicillin/streptomycin and 0.1% (w/v) L-gluamine (Biocrom) at 37° C. in a 5% CO2 fully humidified atmosphere.
as §4, §2

The test system of experiment [5] is L-540, PC3, MCF-7, A2780 and A2780cis cell lines. Kind of experiment: In vitro cytotoxicity across the cell line panel, compared with cisplatin. The settings on record: all cell lines tested. How it is done:
as §3

The next experiment concerns PC3 cells. Kind of experiment: Cell proliferation assay (MTT/MTS), PC3. Particulars: 72-120 h, MTT or MTS, mean±SEM.
Description: as §1, §2

Another experiment relates to A2780 cells. Kind of experiment: Cell proliferation assay (MTT/MTS), A2780. The settings on record: 72-120 h, MTT or MTS, mean±SEM.
Description: as §1, §2

For a further experiment, the system named is L-540 cells. Kind of experiment: Cell proliferation assay (MTS), L-540. The settings on record: mean±SEM.
Description: as §1, §2

The subject of experiment [6] is cisplatin-resistant 2780CP cells. Kind of experiment: Cell proliferation assay, 2780CP-16. The settings on record: 2780CP versus A2780.
Description: Hodgkin's lymphoma cell line (L-540) and human androgen-resistant prostate cancer cell line (PC3) were obtained from the German Collection of Microorganisms and Cell Cultures (Braunschweig, Germany). Human breast adenocarcinoma cell line MCF-7 cell line (HTB-22™) was obtained from the American Type Culture Collection (ATCC, Rockville, Md., USA). […]
as §3, with “testing.” for “testing. The medium was then removed and replaced with fresh medium which separately contained cisplatin and the gold(III) compounds 1 to 9 at increasing concentrations (from 0.01 to 100 μM) at 37° C. for 72-120 h. Each treatment was performed in triplicate. Cell proliferation was assayed using the MTT assay or the MTS assay.”

In the case of `CN(C)C(=S)[S][Au+2].Cc1ccc(-c2ccc(C)cn2)nc1.[Cl-].[Cl-]` [Compound 4], the IC50 (as a rule, the point on the concentration scale where inhibition reaches its midpoint) in the experiment on MCF-7 cells is 280 ± 20 nM; in [1], 87 ± 3 nM; in experiment [2] it was 120 to 310 nM; in experiment [3] it was 83 ± 3 nM; in experiment [4], 170 ± 10 nM; in the experiment with PC3 cells, 590 ± 50 nM. The concentration for half-maximal inhibition (IC50) with A2780 cells was found to be 280 ± 30 nM; with L-540 cells, 2700 ± 220 nM. Also, the “potency from dose-response curves in A549 cells” value in the experiment with A549 cells is “greater potencies than compounds 3, 6, and 9”. The “activity compared with cisplatin” value in experiment [5] is reported as “generally more effective than cisplatin”.
For the compound “cis-[Pt(NH3)2Cl2] [Cisplatin, reference compound]”, the “fold cisplatin resistance of 2780CP cells” value in experiment [6] amounted to 20 fold. The IC50 in the experiment on MCF-7 cells stood at 22200 ± 200 nM; in experiment [4], 10400 ± 900 nM; with PC3 cells it was 3300 ± 300 nM; in the experiment on A2780 cells it was 1500 ± 100 nM; with L-540 cells, 2500 ± 100 nM. Further, the “fold higher IC50 in A2780cis than in A2780” value in experiment [4] (A2780cis versus A2780) is reported as “about 7 fold”. Besides, in experiment [4] (ratio of IC50 in A2780cis to IC50 in A2780), the “Fold resistance A2780cis/A2780 ratio” value was 6.93.
